For series [1] the following is noted: 298.15 K; 101.33 kPa; Liquid; Vibrating tube method.
The nature of series [2]: molar heat capacity at constant pressure. The following applies: 298.15 K; 101.33 kPa; Liquid; Large sample (1 g) DSC.
Series [3] is described as follows: xn = mol fraction of the nth substance listed. The following applies: 298.15 K, 100 kPa, Liquid, Vibrating tube method.
Series [4] can be described thus: molar heat capacity at constant pressure; xn = mol fraction of the nth substance listed. The following applies: 298.15 K, 100 kPa, Liquid, Large sample (1 g) DSC.

± gives the expanded uncertainty stated by the source.

As usually defined, the mass density is the mass of a sample divided by its volume.

Consider `CCC(O)CO` (stereo not drawn) [1,2-butanediol], for which the mass density in series [1] was 998.505 ± 0.068 kg/m3.
Turning to `CCCC(O)CO` (stereo not drawn) [1,2-pentanediol], in series [1], the mass density stood at 966.678 ± 3.2 kg/m3. In series [2], the “molar heat capacity at constant pressure” value came out at 266.29 ± 4.6 J/K/mol.
For `CCCC(O)CO` (stereo not drawn) [1,2-pentanediol] + CO, the mass density in series [3] (x1 = 0.073) stood at 832.04 ± 0.31 kg/m3; in series [3] (x1 = 0.31), 886.031 ± 0.67 kg/m3; in series [3] (x1 = 0.5238) it was 929.073 ± 1.2 kg/m3; in series [3] (x1 = 0.6142), 931.181 ± 1.5 kg/m3; in series [3] (x1 = 0.7047), 946.883 ± 1.8 kg/m3; in series [3] (x1 = 0.8127) it was 950.977 ± 2.3 kg/m3. In addition, the mass density in series [3] (x1 = 0.914) stood at 961.834 ± 2.8 kg/m3; in series [3] (x1 = 1), 966.678 ± 3.2 kg/m3. For the same molecule, the “molar heat capacity at constant pressure” value was found to be 94.77 ± 1.5 J/K/mol in series [4] (x1 = 0.073); 114.15 ± 1.8 J/K/mol in series [4] (x1 = 0.1773); 138.7 ± 2.1 J/K/mol in series [4] (x1 = 0.31); 152.56 ± 2.4 J/K/mol in series [4] (x1 = 0.3868); 178.04 ± 2.8 J/K/mol in series [4] (x1 = 0.5238); 194.86 ± 3 J/K/mol in series [4] (x1 = 0.6142). The “molar heat capacity at constant pressure” value in series [4] (x1 = 0.7047) is recorded as 211.81 ± 3.3 J/K/mol; in series [4] (x1 = 0.8127) it was 231.91 ± 3.6 J/K/mol; in series [4] (x1 = 0.914), 250.63 ± 3.9 J/K/mol; in series [4] (x1 = 1), 266.29 ± 4.1 J/K/mol.
As for `CC(O)CO` (stereo not drawn) [1,2-propanediol], the mass density in series [1] was 1032.55 ± 0.11 kg/m3. For the same molecule, the “molar heat capacity at constant pressure” value in series [2] amounted to 191.71 ± 3.2 J/K/mol.
As for `CC(O)CO` (stereo not drawn) [1,2-propanediol] + CO, the “molar heat capacity at constant pressure” value in series [4] (x1 = 0.0743) came to 89.47 ± 1.4 J/K/mol; in series [4] (x1 = 0.2305), 106.48 ± 1.6 J/K/mol; in series [4] (x1 = 0.3354), 118.08 ± 1.8 J/K/mol; in series [4] (x1 = 0.4104), 126.35 ± 2 J/K/mol; in series [4] (x1 = 0.51), 137.4 ± 2.1 J/K/mol; in series [4] (x1 = 0.6498), 152.77 ± 2.4 J/K/mol. The “molar heat capacity at constant pressure” value in series [4] (x1 = 0.7273) came out at 161.34 ± 2.5 J/K/mol; in series [4] (x1 = 0.7821), 167.69 ± 2.6 J/K/mol; in series [4] (x1 = 0.8985), 180.45 ± 2.8 J/K/mol; in series [4] (x1 = 1), 191.71 ± 3 J/K/mol.
For the molecule `CO` [methanol], in series [1], the mass density was 786.585 ± 0.24 kg/m3. The “molar heat capacity at constant pressure” value in series [2] was 81.37 ± 1.4 J/K/mol.
On to `CO` [methanol] + CC(O)CO, for which, in series [4] (x2 = 0), the “molar heat capacity at constant pressure” value is recorded as 81.37 ± 1.3 J/K/mol.
For `CO` [methanol] + CCCC(O)CO, the mass density in series [3] (x2 = 0) was determined as 786.585 ± 0.24 kg/m3. For the same molecule, the “molar heat capacity at constant pressure” value in series [4] (x2 = 0) is recorded as 81.37 ± 1.3 J/K/mol.

These data come from the NIST ThermoML archive (doi:10.1016/j.fluid.2015.05.016).
